{"source": "paper PMC12469269", "about": "“Investigating SMR Peptide Interactions with Breast Cancer-Associated Proteins” (International Journal of Molecular Sciences, 2025)", "tested_on": "Jurkat T cells", "assay": "EV secretion, Nef-GFP (Figure 6A), Jurkat T cells", "assay_type": "cell-based", "details": "349.6 nM SMRwt-CPP or 357.27 nM VIMwt-CPP, 24 h", "experimental": "To investigate whether SMRwt and VIMwt peptides can suppress extracellular vesicle (EV) secretion, Jurkat T cells were co-transfected with wild-type Nef-GFP and treated with either SMRwt-CPP (349.6 nM) or VIMwt-CPP (357.27 nM) peptides. GFP fluorescence in the culture media was used as a proxy for Nef-associated EV release after 24 h of incubation.\nFigure 6 SMRwt and VIMwt peptides decrease extracellular vesicle secretion in Jurkat T cells and breast cancer cells. (A) Jurkat T cells were co-transfected with 1 µg of wild-type Nef-GFP plasmid and treated with either 349.6 nM SMRwt-CPP or 357.27 nM VIMwt-CPP peptides. After 24 h at 37 °C, culture media were collected and assayed for extracellular vesicle (EV) secretion using GFP fluorescence as a proxy. (B,C) MDA-MB-231 and MCF-7 breast cancer cells were treated with either 349.6 nM SMRwt-CPP or 357.27 nM VIMwt-CPP peptides for 24 h at 37 °C. Cells were then labeled with 5 µM N-Rh-PE at 4 °C for 1 h, washed, and incubated in fresh media for an additional 24 h. Supernatants were assayed for EV secretion using N-Rh-PE fluorescence. Bar graphs show relative EV levels. Data represent mean ± SD from three independent experiments. Statistical comparisons were performed using appropriate tests; p-values are indicated. […]", "data": [{"substance": "H-LYEEEMREGRKKRRQRRRPPQ - OH [VIMwt-CPP]", "values": [{"measurement": "p, peptide vs Nef-GFP alone, EV secretion", "value": "< 0.0006"}]}]}
